The results in this text go back to patent US9926281B2 (priority 2014, dated 2018).

Assay [1] has as its target human ADAMTS-5 (Homo sapiens (Human), UniProt Q9UNA0). As to conditions: read-out: hADAMTS-5 potency IC50.
Method: Finally, the fluorescence is read on the Envision (Perkin Elmer) after an incubation of 90 min at 37° C.
Assay [2] deals with human TACE (Homo sapiens (Human), UniProt P78536). To be noted: read-out: TACE potency IC50.
Assay [3] deals with human MMP13 (Homo sapiens (Human), UniProt P45452). As to conditions: read-out: hMMP-13 potency IC50.
Method: Human MMP13 is preactivated by incubated the enzyme in the same buffer complemented with 1 mM freshly prepared p-Aminophenylmercuric acetate (AMPA) for 1 hour at 37° C.

human TACE, sequence (P78536 whole entry, looked up, change not shown): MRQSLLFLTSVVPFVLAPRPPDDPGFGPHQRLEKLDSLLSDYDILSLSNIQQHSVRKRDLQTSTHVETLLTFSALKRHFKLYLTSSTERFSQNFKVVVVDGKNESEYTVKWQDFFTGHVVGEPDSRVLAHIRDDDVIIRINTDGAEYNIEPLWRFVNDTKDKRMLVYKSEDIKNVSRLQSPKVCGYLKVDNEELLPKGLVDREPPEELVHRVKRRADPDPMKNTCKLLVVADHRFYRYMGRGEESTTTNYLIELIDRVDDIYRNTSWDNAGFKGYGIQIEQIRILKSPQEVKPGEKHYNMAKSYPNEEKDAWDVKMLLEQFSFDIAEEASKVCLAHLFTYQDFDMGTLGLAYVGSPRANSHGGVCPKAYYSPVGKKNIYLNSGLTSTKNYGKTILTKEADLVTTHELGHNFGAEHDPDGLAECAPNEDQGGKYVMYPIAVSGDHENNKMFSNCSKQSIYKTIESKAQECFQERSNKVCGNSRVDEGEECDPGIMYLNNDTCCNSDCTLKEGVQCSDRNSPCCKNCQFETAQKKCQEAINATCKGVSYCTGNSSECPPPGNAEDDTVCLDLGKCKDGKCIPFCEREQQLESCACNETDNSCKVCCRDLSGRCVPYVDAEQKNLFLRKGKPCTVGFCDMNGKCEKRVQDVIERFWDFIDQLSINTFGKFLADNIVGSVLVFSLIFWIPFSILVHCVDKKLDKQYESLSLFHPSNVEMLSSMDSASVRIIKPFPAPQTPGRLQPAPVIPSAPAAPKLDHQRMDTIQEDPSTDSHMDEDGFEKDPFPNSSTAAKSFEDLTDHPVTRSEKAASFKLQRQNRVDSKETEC
human ADAMTS-5, sequence (Q9UNA0 262-930): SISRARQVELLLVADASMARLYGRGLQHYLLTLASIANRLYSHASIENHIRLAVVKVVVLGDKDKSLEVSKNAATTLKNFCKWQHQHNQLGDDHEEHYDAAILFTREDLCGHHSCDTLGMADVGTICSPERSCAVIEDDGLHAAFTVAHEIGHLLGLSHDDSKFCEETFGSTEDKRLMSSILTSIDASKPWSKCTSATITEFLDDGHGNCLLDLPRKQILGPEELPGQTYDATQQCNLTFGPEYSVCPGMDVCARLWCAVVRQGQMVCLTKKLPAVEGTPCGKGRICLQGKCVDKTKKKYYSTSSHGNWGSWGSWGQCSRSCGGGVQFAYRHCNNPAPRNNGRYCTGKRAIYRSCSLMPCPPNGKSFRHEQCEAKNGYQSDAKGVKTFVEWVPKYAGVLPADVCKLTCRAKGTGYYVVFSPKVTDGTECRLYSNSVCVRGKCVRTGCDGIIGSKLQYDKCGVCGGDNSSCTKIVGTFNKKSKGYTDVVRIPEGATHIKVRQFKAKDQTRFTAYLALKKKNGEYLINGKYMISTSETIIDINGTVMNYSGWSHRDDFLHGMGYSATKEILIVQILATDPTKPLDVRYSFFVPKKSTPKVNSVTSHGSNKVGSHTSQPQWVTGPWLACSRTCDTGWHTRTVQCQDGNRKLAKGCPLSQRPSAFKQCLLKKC

In the case of `NCC1(CCC(=O)N2CCN(c3cccc(Cl)c3)CC2)NC(=O)NC1=O` (stereo not drawn) [compound 171, 5-(aminomethyl)-5-[3-[4-(3-chlorophenyl)piperazin-1-yl]-3-oxo-propyl]imidazolidine-2,4-dione], the values for the IC50 in assay [1], in assay [2] and in assay [3] were 305 nM, over 20000 nM and over 4 µM, respectively.

Turning to `O=C1NC(=O)C(CC(O)C(=O)N2CCN(c3cc(Cl)cc(Cl)c3)CC2)(C2CC2)N1` (stereo not drawn) [compound 201, 5-cyclopropyl-5-[3-[4-(3,5-dichlorophenyl)piperazin-1-yl]-2-hydroxy-3-oxo-propyl]imidazolidine-2,4-dione], the IC50 (in general, the concentration that gives 50% inhibition) in assay [1] was 307 nM; in assay [2] it was over 20000 nM; in assay [3], over 20 µM.

In the case of `CC1(CC(CO)C(=O)N2CCN(c3cc(Cl)cc(Cl)c3)CC2)NC(=O)NC1=O` (stereo not drawn) [compound 220, 5-[3-[4-(3,5-dichlorophenyl)piperazin-1-yl]-2-(hydroxymethyl)-3-oxo-propyl]-5-methyl-imidazolidine-2,4-dione], the IC50 was 18 nM in assay [1], 245 nM in assay [2] and over 4 µM in assay [3].

As for `COCC1(CC(C)C(=O)N2CCN(c3cc(Cl)cc(Cl)c3)CC2)NC(=O)NC1=O` (stereo not drawn) [compound 222, 5-[3-[4-(3,5-dichlorophenyl)piperazin-1-yl]-2-methyl-3-oxo-propyl]-5-(methoxymethyl)imidazolidine-2,4-dione], the IC50 in assay [1] was 20 nM; in assay [2] it was 337 nM; in assay [3] it was over 4 µM.

Consider `COCC1(CC(C)C(=O)N2CCN(c3cc(F)cc(F)c3)[C@@H](C)C2)NC(=O)NC1=O` (stereo partly drawn) [compound 225, 5-[3-[(3S)-4-(3,5-difluorophenyl)-3-methyl-piperazin-1-yl]-2-methyl-3-oxo-propyl]-5-(methoxymethyl)imidazolidine-2,4-dione], for which the IC50 in assay [1] is 28 nM; in assay [2], over 20000 nM; in assay [3] it was 3.94 µM.

Turning to `CC(CC1(c2ccccn2)NC(=O)NC1=O)C(=O)N1CCN(c2cc(Cl)cc(Cl)c2)CC1` (stereo not drawn) [compound 231, 5-[3-[4-(3,5-dichlorophenyl)piperazin-1-yl]-2-methyl-3-oxo-propyl]-5-(2-pyridyl)imidazolidine-2,4-dione], the results for the IC50 in assay [1], in assay [2] and in assay [3] were 20 nM, 106 nM and 0.766 µM, respectively.

On to `CCC(CC1(C)NC(=O)NC1=O)C(=O)N1CCN(c2cc(Cl)cc(Cl)c2)CC1` (stereo not drawn) [compound 236, 5-[2-[4-(3,5-dichlorophenyl)piperazine-1-carbonyl]butyl]-5-methyl-imidazolidine-2,4-dione], for which the IC50 is 15 nM in assay [1], 225 nM in assay [2] and 1.22 µM in assay [3].

With `C[C@H]1CN(C(=O)CCC2(C3CC3)NC(=O)NC2=O)CCN1c1ccc(Cl)c(Cl)c1` (stereo partly drawn) [compound 408, 5-cyclopropyl-5-(3-((S)-4-(3,4-dichlorophenyl)-3-methylpiperazin-1-yl)-3-oxopropyl)imidazolidine-2,4-dione], the IC50 in assay [1] was 19 nM; in assay [2], over 4000 nM; in assay [3], over 4 µM.

On to `CC(CC1(C2CC2)NC(=O)NC1=O)C(=O)N1CCN(c2cc(Cl)cc(Cl)c2)CC1` (stereo not drawn) [compound 409, 5-cyclopropyl-5-(3-(4-(3,5-dichlorophenyl)piperazin-1-yl)-2-methyl-3-oxopropyl)imidazolidine-2,4-dione], for which the 50% inhibitory concentration (IC50) in assay [1] amounted to 17 nM; in assay [2] it was 311 nM; in assay [3] it was 2.74 µM.

On to `CC(CC1(C)NC(=O)NC1=O)C(=O)N1CCN(c2cc(Cl)cc(Cl)c2)CC1` (stereo not drawn) [compound 410, 5-(3-(4-(3,5-dichlorophenyl)piperazin-1-yl)-2-methyl-3-oxopropyl)-5-methylimidazolidine-2,4-dione], for which the IC50 is 22 nM in assay [1], 170 nM in assay [2] and over 4 µM in assay [3].
